Values quoted from earlier work in patent US7414057B2, “Piperazine urea derivatives as melanocortin-4 receptor agonists” (Merck & Co., Inc., priority 2002, dated 2008).

Details: injected intramuscularly or subcutaneously to males with psychogenic erectile dysfunction

Ac-Nle-c[Asp-His-DPhe-Arg-Trp-Lys]-NH2 [melanotan-II]
response rate: 75%
